Each block holds one molecule with its values, some of them ahead of it.
Legend:
Format in all cases: biochemical
[1] = biological target: T1, alkaline phosphatase from bovine intestine (Bos taurus, UniProt P19111); assay: AP fluorometric assay; settings: for Hill coefficient / kcat / Km / Vmax: hydrolysis of DiFMUP by AP; for Km / Vmax / IC50 / apparent AP Vmax: ± 95% confidence interval; for IC50: 60 min; for apparent AP Vmax: substrate DiFMUP
Target sequence in this assay (P19111 20-506 limits assumed): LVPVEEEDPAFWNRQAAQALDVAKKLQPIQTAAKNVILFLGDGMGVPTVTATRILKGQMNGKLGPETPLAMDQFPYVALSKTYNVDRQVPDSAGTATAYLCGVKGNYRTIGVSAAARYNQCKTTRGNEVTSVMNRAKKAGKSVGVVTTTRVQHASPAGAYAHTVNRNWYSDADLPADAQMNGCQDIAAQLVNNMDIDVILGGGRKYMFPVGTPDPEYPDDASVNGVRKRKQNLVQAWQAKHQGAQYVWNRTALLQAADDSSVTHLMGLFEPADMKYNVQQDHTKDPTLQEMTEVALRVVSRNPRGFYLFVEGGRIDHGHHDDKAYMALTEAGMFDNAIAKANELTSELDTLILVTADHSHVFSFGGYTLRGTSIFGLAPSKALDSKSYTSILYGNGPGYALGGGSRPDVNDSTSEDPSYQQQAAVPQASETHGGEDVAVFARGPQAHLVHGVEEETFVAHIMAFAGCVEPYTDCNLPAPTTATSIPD

[2] = biological target: T1, alkaline phosphatase from bovine intestine; assay: AP colorimetric assay; settings: detergent at two concentrations above its critical micelle concentration
Target sequence in this assay (P19111 20-533): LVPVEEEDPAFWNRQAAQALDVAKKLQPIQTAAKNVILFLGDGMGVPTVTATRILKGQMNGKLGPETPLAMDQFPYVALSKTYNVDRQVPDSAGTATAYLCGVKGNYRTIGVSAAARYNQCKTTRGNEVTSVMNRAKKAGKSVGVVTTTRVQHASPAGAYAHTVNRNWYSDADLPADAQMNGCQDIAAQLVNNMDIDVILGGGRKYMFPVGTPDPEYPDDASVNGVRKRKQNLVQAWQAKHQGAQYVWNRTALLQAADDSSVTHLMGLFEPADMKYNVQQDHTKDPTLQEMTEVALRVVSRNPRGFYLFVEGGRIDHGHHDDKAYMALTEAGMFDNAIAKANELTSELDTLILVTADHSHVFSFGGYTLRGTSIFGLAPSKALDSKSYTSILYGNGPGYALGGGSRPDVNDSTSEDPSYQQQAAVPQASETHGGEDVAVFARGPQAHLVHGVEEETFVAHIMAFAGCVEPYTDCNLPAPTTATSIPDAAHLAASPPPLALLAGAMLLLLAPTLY

[3] = test system: alkaline phosphatase from bovine intestine; assay: Reversibility test by rapid dilution of the enzyme-inhibitor complex

Hill coefficient ([1]; pH 6.5, 37 °C): 1
kcat ([1]; pH 6.5, 37 °C): 37 s⁻¹
Km ([1]; pH 6.5, 37 °C): 0.2 ± 0.04 µM
Vmax ([1]; pH 6.5, 37 °C): 32 ± 2 µmol/min/mg
Hill coefficient ([1]; pH 7.0, 37 °C): 1
kcat ([1]; pH 7.0, 37 °C): 82 s⁻¹
Km ([1]; pH 7.0, 37 °C): 0.5 ± 0.04 µM
Vmax ([1]; pH 7.0, 37 °C): 71 ± 3 µmol/min/mg
Hill coefficient ([1]; pH 7.5, 37 °C): 1
kcat ([1]; pH 7.5, 37 °C): 147 s⁻¹
Km ([1]; pH 7.5, 37 °C): 1.4 ± 0.2 µM
Vmax ([1]; pH 7.5, 37 °C): 126 ± 3 µmol/min/mg
Hill coefficient ([1]; pH 8.0, 37 °C): 1
kcat ([1]; pH 8.0, 37 °C): 211 s⁻¹
Km ([1]; pH 8.0, 37 °C): 2.8 ± 0.1 µM
Vmax ([1]; pH 8.0, 37 °C): 181 ± 1 µmol/min/mg
Molecule: Cc1cc(=O)oc2c(F)c(OP(=O)(O)O)c(F)cc12 [DiFMUP, 6,8-difluoro-4-methylumbelliferyl phosphate]

increase in AP activity [2]: up to 40%
Molecule: Triton X-100

reversibility of inhibition [3]: rapidly reversible
IC50 ([1]; 0.025 μM DiFMUP, pH 6.5, 37 °C): 1000 ± 400 nM
IC50 ([1]; 0.050 μM DiFMUP, pH 6.5, 37 °C): 1500 ± 400 nM
IC50 ([1]; 0.100 μM DiFMUP, pH 6.5, 37 °C): 1600 ± 300 nM
IC50 ([1]; 0.200 μM DiFMUP, pH 6.5, 37 °C): 2300 ± 400 nM
IC50 ([1]; 0.400 μM DiFMUP, pH 6.5, 37 °C): 4000 ± 400 nM
IC50 ([1]; 0.800 μM DiFMUP, pH 6.5, 37 °C): 6100 ± 900 nM
IC50 ([1]; 1.600 μM DiFMUP, pH 6.5, 37 °C): 11000 ± 3000 nM
mode of inhibition ([1]; IC50 rises with DiFMUP concentration, apparent KM but not Vmax rises): competitive
apparent AP Vmax ([1]; Na3VO4 0.084 μM): 567 ± 18 RFU min^−1
apparent AP Vmax ([1]; Na3VO4 0.250 μM): 561 ± 35 RFU min^−1
apparent AP Vmax ([1]; Na3VO4 0.760 μM): 566 ± 24 RFU min^−1
apparent AP Vmax ([1]; Na3VO4 2.28 μM): 546 ± 32 RFU min^−1
apparent AP Vmax ([1]; Na3VO4 6.68 μM): 513 ± 53 RFU min^−1
Molecule: [Na+].[Na+].[Na+].[O]=[V]([O-])([O-])[O-] [Na3VO4, sodium orthovanadate]

increase in AP activity [2]: up to 40%
Molecule: C[C@H](CCC(=O)NCCC[N+](C)(C)CCCS(=O)(=O)[O-])[C@H]1CC[C@H]2[C@@H]3[C@H](O)C[C@@H]4C[C@H](O)CC[C@]4(C)[C@H]3C[C@H](O)[C@]12C [CHAPS]

increase in AP activity [2]: up to 40%
Molecule: Tween 20

decrease in reaction velocity ([1]; DMSO concentrations up to 1.5%): less than 10%
Molecule: C[S+](C)[O-] [DMSO]

Reference: article PMC4822204 (Biomolecular Detection and Quantification, 2015)
